These results are taken from publication PMC6894747 (PLoS Pathogens, 2019).

In series [1] the test system is MT-2 cells. Description: Cytotoxicity assay (CCK-8). Type of series: cell-based. The note with it: for in vitro cytotoxicity to MT-2 cells: up to 5 μM, 48 h, CCK-8, triplicate. The procedure:
(§1) The potential cytotoxicity of peptides on MT-2 and M7 cells was measured by using the Cell Counting Kit-8 according to the manufacturer’s instructions (CCK-8, Dojindo Laboratories, Kumamoto, Japan). Briefly, 100 μL of a peptide at graded concentrations were added to equal volumes of cells (10^4 cells/well) in a 96-well plate. Cell viability was evaluated using the CCK-8 kit after incubation at 37 °C for 2 days. Incubation with CCK-8 reagents at 37 °C for another 4 h, the absorbance at 450 nm was measured with an ELISA reader, and the percentage of cytotoxicity was calculated.

Series [2] relates to M7 cells. As to the kind of experiment: Cytotoxicity assay (CCK-8). Type of series: cell-based. The note with it: up to 5 μM, 48 h, triplicate. The procedure: as §1
Series [3] can be described thus: in vivo. The procedure: The samples were then centrifuged (3200 rpm for 10 min at 4 °C), and plasma was aliquoted and kept frozen until analysis.
After being coated, the plate was washed three times with PBS-T to remove the excess antibody. The remaining active sites on the plate were blocked by the addition of 150 μL 2% milk for 2 h at 37 °C. […] Then, HRP-labeled rabbit anti-mouse IgG (Sigma, USA) incubated at 37 °C for 1 h. The substrate TMB reagent were added and incubated for 5 min, resulting in the development of a blue color. Color development was stopped by the stop solution (1M H2SO4 50 μL/well). Absorbance at 450 nm was determined by an ELISA reader (Ultra 384, Tecan; Tecan, Research Triangle Park, NC).

Series [4] has as its system ICR mice. As to the kind of experiment: Safety of IBP-CP24 for ICR mice. Type of series: in vivo. Particulars: for serum ALT level / serum creatinine level: i.p., CP24 10 mg/kg, IBP-CP24 10 or 100 mg/kg, before and 5 h, 1, 4 days post-injection. The method, then:
Body weight changes of mice at different time points were monitored. Creatinine and ALT in the sera were measured by using the creatinine and ALT assay kits (NJJCBIO, Nanjing, China) before injection and 5 h, 1, and 4 days post-injection, respectively. All mice were sacrificed at day 15 post-injection, and the livers and kidneys were collected for haematoxylin and eosin (H&E) staining.

Series [5] relates to HIV-1 IIIB. Description: Ex vivo anti-HIV-1 activity of sera from treated mice. It is filed as in vivo. Particulars: BALB/c mice, i.p., N6 3.2 mg/kg and/or IBP-CP24 1.8 mg/kg. The method, then: The ex vivo anti-HIV-1 activity of a peptide or a bNAb or their combination in serum samples from mice treated with the peptide or bNAb was detected as described previously. […] Sera were collected from these mice at 2 and 8 h post-injection and tested for their inhibitory activity against HIV-1IIIB infection as described above. The dilution fold of the serum causing 50% inhibition (DF-IC50) was calculated.

Series [6] deals with rhesus monkey IgG. Description: ELISA binding to rhesus monkey IgG. The note with it: ELISA on peptide-coated plate; one site specific binding fit; ± SE, three replicates per point; read-out: Estimated Kd of binding to rhesus monkey IgG. The procedure: Next, different concentrations of human or rhesus monkey IgG were added to the peptide-coated plate and incubated at 37 °C for 1 h. Rabbit anti-human IgG-HRP (1:3000 diluted) was added to each well and incubated at 37 °C for another 1 h. Afterwards, the bound IgG-HRP was detected by addition of the HRP substrate TMB. The reaction was terminated by addition of 1 M H2SO4 50 μL. Absorbance at 450 nm was measured using an ELISA reader (Ultra 384; Tecan, Research Triangle Park, NC).
The data was fitted to the “one site – specific binding” using GraphPad Prism. The standard error (SE) is given for a sample size of three replicates per data point.

The test system of series [7] is cell-cell fusion between H9/HIV-1IIIB and MT-2 cells. The note with it: IC50 comparison with CP24.
Method: The inhibitory activity of peptides against cell-cell fusion between H9/HIV-1IIIB and MT-2 cells was detected, as described previously [3, 81]. Briefly, H9/HIV-1IIIB cells were labeled with a fluorescent reagent, Calcein AM (Molecular Probes, Inc., Eugene, Oregon), and then incubated with MT-2 cells (ratio = 1:10) in a 96-well plate at 37 °C for 2 h in the presence of a test peptide at graded concentrations or PBS as a control. The fused and unfused Calcein-labeled HIV-1-infected cells were counted under an inverted fluorescence microscope (Zeiss, Germany). Three fields of each well were counted and the percentage of inhibition of cell fusion by peptides was calculated as described previously [81]. The IC50 values of fusion were calculated using the CalcusSn software [36] and the inhibition curves of best fit were generated with GraphPad Prism.
Series [8] addresses T1, 6-HB formation between N36 and C34 (Human immunodeficiency virus type 1 group M subtype B, UniProt P04578).
T1 construct: purchased KareBay Biochem, Inc; host or cells: solid-phase chemical synthesis
As to the kind of experiment: Inhibition of 6-HB formation, sandwich ELISA. Type of series: biochemical, HIV-1. Particulars: N36 and C34 1 μM each, triplicate. The procedure: The inhibitory activity of peptides on 6-HB formation was measured by the sandwich ELISA method, as previously described. Briefly, a 96-well polystyrene plate (Costar, Corning Inc., Corning, NY) was coated with rabbit anti-gp41 (NY-364) (2 μg/mL in 0.1 M Tris, pH 8.8). […] The mixture was added to the NY-364-coated plate, followed by incubation at room temperature for 60 min and washed three times with a washing buffer (PBS containing 0.1% Tween 20). The monoclonal antibody NC-1(1 μg/mL) was added to the plate and incubated at room temperature for 60 min, followed by washing three times. Rabbit anti-mouse IgG-HRP (Sigma) (1:3000 diluted) was added to each well and incubated at 37 °C for 1 h. The substrate 3, 3’, 5, 5’-tetramethylbenzidine (TMB; Sigma) was then added sequentially. Absorbance at 450 nm was measured using an ELISA reader (Ultra 384; Tecan, Research Triangle Park, NC). The percent inhibition by the peptides and the IC50 were calculated, as previously described.
A general note: ELISA stands for enzyme-linked immunosorbent assay.

Series [9] has as its system Pseudoviruses. As to the kind of experiment: Inhibition of pseudotyped HIV-1 infection, panel average. Type of series: cell-based. The note with it: average IC50 of 12 pseudotyped strains. The source says:
HIV-1 pseudoviruses were generated, as described previously.

Series [10] concerns HIV-1 IIIB. As to the kind of experiment: Inhibitors alone or in combination against HIV-1 IIIB. Particulars: mixture N6 / IBP-CP24, HIV-1 IIIB. Type of series: cell-based. The method, then:
The samples were serially diluted and tested for their inhibitory activity on HIV-1 infection as described above. The data were analyzed for synergistic effect by calculating the combination index (CI) with the CalcuSyn software. CI values of <0.95 and >1.05 indicate synergy and antagonism, respectively. CI <0.1, 0.1–0.3, 0.3–0.7, 0.7–0.85, and 0.85–0.90 indicate very strong synergism, strong synergism, synergism, moderate synergism, and slight synergism, respectively. Fold of dose reduction was calculated with the ratio of concentrations of inhibitor testing alone and in combination.

In series [11] the test system is T20-resistant strains. Description: Inhibition of T20-resistant HIV-1 variants, average. Type of series: cell-based. Particulars: comparison with CP24.
Method: Briefly, 1×10^5/mL MT-2 or M7 cells were infected with different HIV-1 viruses at 100 TCID50 (50% tissue culture infective dose) in the presence or absence of peptides at graded concentrations overnight. Then the culture supernatants were replaced with equal volume of fresh medium. On the fourth day post-infection, supernatants were collected and mixed with equal volume of 5% Triton X-100. […] The IC50 values were calculated with CalcuSyn software [35–36], and inhibition curves of best fit were generated with GraphPad Prism.
The mark [12] stands for this setting: rhesus monkey, plasma, iv, 10 mg/kg.

Positions of bridges follow the written chain, without caps; N, C: chain ends. Residues, ends and D or L forms follow the SMILES beside them. No end group written: not given here.

T1 sequence (P04578 546-581): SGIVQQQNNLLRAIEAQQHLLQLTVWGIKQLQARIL

One may read the AUC(0-t) as exposure summed from dosing to a finite time, without extrapolation to infinity. One may read the Cmax as the peak of the concentration-time curve. The MRT is the average time that molecules of a dose stay in the body. As a reminder, the Tmax is the time from dosing to the highest level. The term half-life denotes the time needed for the level to fall by half in the phase considered. “MTWEEWDKKIEEYTKKIEELIKKS [CP24, reference compound]”: in series [1], the “in vitro cytotoxicity to MT-2 cells” value is “no in vitro cytotoxicity”. In addition, the “in vitro cytotoxicity to M7 cells” value in series [2] is recorded as “no in vitro cytotoxicity”. In addition, in series [3] (setting [12]), the AUC(0-t) is 180 µg·h/mL, the Cmax is 23600 ng/mL, the MRT came to 4.47 h and the Tmax was found to be 2 h. Besides, the half-life in series [3] (setting [12]) was 1.69 h. Also, in [4] (versus PBS), the “serum ALT level” value is listed as “no significant difference” and the serum creatinine level result is “no significant difference”.

What is called Kd is the equilibrium constant for the complex coming apart. Regarding `CC[C@H](C)[C@H](NC(=O)[C@H](CC(C)C)NC(=O)[C@H](CCC(=O)O)NC(=O)[C@H](CCC(=O)O)NC(=O)[C@@H](NC(=O)[C@H](CCCCN)NC(=O)[C@H](CCCCN)NC(=O)[C@@H](NC(=O)[C@H](Cc1ccc(O)cc1)NC(=O)[C@H](CCC(=O)O)NC(=O)[C@H](CCC(=O)O)NC(=O)[C@@H](NC(=O)[C@H](CCCCN)NC(=O)[C@H](CCCCN)NC(=O)[C@H](CC(=O)O)NC(=O)[C@H](Cc1c[nH]c2ccccc12)NC(=O)[C@H](CCC(=O)O)NC(=O)[C@H](CCC(=O)O)NC(=O)[C@H](Cc1c[nH]c2ccccc12)NC(=O)[C@@H](NC(=O)[C@H](CCSC)NC(=O)[C@@H](NC(=O)[C@@H]1CSSC[C@H](NC(=O)[C@@H](N)CC(=O)O)C(=O)N[C@@H](C)C(=O)N[C@@H](Cc2c[nH]c3ccccc23)C(=O)N[C@@H](Cc2c[nH]cn2)C(=O)N[C@@H](CC(C)C)C(=O)NCC(=O)N[C@@H](CCC(=O)O)C(=O)N[C@@H](CC(C)C)C(=O)N[C@@H](C(C)C)C(=O)N[C@@H](Cc2c[nH]c3ccccc23)C(=O)N1)[C@@H](C)O)[C@@H](C)O)[C@@H](C)CC)[C@@H](C)O)[C@@H](C)CC)C(=O)N[C@@H](CCCCN)C(=O)N[C@@H](CCCCN)C(=O)N[C@@H](CO)C(=O)O` [IBP-CP24] (H-DCAWHLGELVWCTMTWEEWDKKIEEYTKKIEELIKKS-OH; disulfide 2-12; N-terminus and C-terminus assumed), the “non-cytotoxic concentration fold higher than IC50 for HIV-1 inhibition” value in [1] (5 μM versus IC50, MT-2 and M7 cells) is on record as “more than 800 fold”. Further, the “in vitro cytotoxicity to MT-2 cells” value in series [1] is “no significant in vitro cytotoxicity”. For the same molecule, in series [2], the “in vitro cytotoxicity to M7 cells” value is “no significant in vitro cytotoxicity”. Also, in series [5] (sera 2 h post-injection), the “DF-IC50 (dilution fold of serum causing 50% inhibition of HIV-1 IIIB infection)” value worked out at 35. In addition, the “DF-IC50 (dilution fold of serum causing 50% inhibition of HIV-1 IIIB infection)” value in series [5] (sera 8 h post-injection) is on record as 16. Moreover, in [3] (rhesus monkey plasma, 10 mg/kg i.v.), the “fold longer half-life than CP24” value is 26 fold. Moreover, in series [3] (setting [12]), the area under the curve AUC(0-t) worked out at 3430 µg·h/mL, the Cmax was 52700 ng/mL, the mean residence time (MRT) was found to be 64.4 h and the half-life was 46.1 h. Further, the “fold higher AUC 0-t than CP24” value in series [3] (rhesus monkeys, 10 mg/kg i.v.) is “about 18 fold”. In addition, in series [3] (rhesus monkeys, single i.v. 10 mg/kg, sandwich ELISA, CP24 n = 2, IBP-CP24 n = 3), the time to peak (Tmax) amounted to 4 h. Moreover, in series [6], the Kd is 557 nM. Also, in series [4] (10 and 100 mg/kg i.p.), the “in vivo toxicity, overall” value was “no obvious in vivo toxicity”. Further, the “H&E stained sections of liver and kidneys” value in series [4] (day 15 post-injection, versus PBS) is listed as “no pathological abnormality”. In [4] (versus PBS), the “serum ALT level” value was “no significant difference” and the serum creatinine level result is given as “no significant difference”. For the same molecule, in series [7], the “fold of CP24 in cell-cell fusion inhibition” value is “about 1.2 fold”. The “inhibition of 6-HB formation between N36 and C34” value in series [8] was “much stronger inhibition on 6-HB formation than CP24 itself”. In addition, in series [9], the “fold more potent than CP24, pseudotyped strains” value was approximately 4.9 fold and the “fold more potent than T20, pseudotyped strains” value was “about 24.2 fold”. Further, the Dose reduction in series [10] is given as 3.6 fold. The “average IC50 fold of that of CP24, T20-resistant strains” value in series [11] was “about 1.5 fold”.
